The text below walks through data of publication PMC8335727 (Inorganic Chemistry, 2021).

Read-outs that look alike come from different tables or passages of the source. Some results are limits rather than exact numbers.

Data set [1] has as its system MRC-5. Kind of data set: MTT cytotoxicity assay, MRC-5. Format: cell-based. Particulars: Homo sapiens, MRC5, 72 h of exposure. The protocol: (§1) 2.5. In vitro cell studies
(§2) 2.5.1. Cell lines and culture conditions
All cell culture reagents were obtained from Sigma-Aldrich and plastic ware from Sarstedt […]
(§3) MRC-5 human embryonal lung fibroblast cell line (ATCC CCL-171) was purchased from LGC
(§4) Promochem, Teddington, UK. The cell line was cultured in Eagle’s Minimal Essential Medi um
(§5) (EMEM, containing 4.5 g/L glucose) supplemented with a non-essential amino acid mixture, a
(§6) selection of vitamins and 10% heat-inactivated fetal bovine serum. The cells were incubated at
(§7) 37°C, in a 5% CO2, 95% air atmosphere. All cell lines were detached with Trypsin-Versene
(§8) (EDTA) solution for 5 min at 37 °C.
(§9) The tested compounds were dissolved in DMSO using 10 mM concentration. Then stock solutions
(§10) were diluted in complete culture medium in 96-well microtiter plates, and two-fold serial dilutions
(§11) of compounds were prepared in 100 µL of RPMI 1640, horizontally. The semi-adherent colonic
(§12) adenocarcinoma cells were treated with Trypsin -Versene (EDTA) solution. They were adjusted to
(§13) a density of 1×10^4 cells in 100 µL of RPMI 1640 medium, and were added to each well, with the
(§14) exception of the medium control wells. The final volume of the wells containing compounds and
(§15) cells was 200 µL. The culture were incubated at 37 °C for 72 h; at the end of the incubation period,
(§16) 20 µL of MTT solution (from a stock solution of 5 mg/mL) were added to each well. After
(§17) incubation at 37 °C for 4 h, 100 µL of SDS solution (10% in 0.01 M HCI) were added to each well
(§18) and the plates were further incubated at 37 °C overnight. The cell growth was determined using
(§19) both methods by measuring the optical density (OD) at 450 nm (ref. 620 nm) with a Multiscan EX
(§20) ELISA reader. Inhibition of the cell growth (expressed as IC 50: inhibitory concentration that
(§21) reduces by 50% the growth of the cells exposed to the tested compounds) was determined from
(§22) the sigmoid curve where 100 – ((ODsample ‒ ODmedium control)/(ODcell control ‒ ODmedium control)) × 100
(§23) values were plotted against the logarithm of compound concentrations. […]

Data set [2] concerns Colo320. In words: MTT cytotoxicity assay, Colo320. The data set is classed as cell-based. Particulars: Homo sapiens, COLO 320, 72 h of exposure. On the procedure: (§24) The in vitro cytotoxicity of the TSCs HL^1–HL^3, copper(II) complexes Cu(HL^1)Cl2, [Cu(L^2)Cl], and Cu(HL^3)Cl2, and oxidized TSCs HL^1a′, HL^1a″, and HL^2c′·CH3COOH was tested in the doxorubicin-sensitive Colo205 and the multidrug-resistant Colo320 human colonic adenocarcinoma cell lines as well as in normal human embryonal lung fibroblast cells (MRC-5) by the colorimetric MTT assay. […]
as §1, §2
(§25) All cell culture reagents were obtained from Sigma-Aldrich and plastic ware from Sarstedt
(§26) (Germany). Doxorubicin-sensitive human colonic Colo 205 and multidrug resistant
(§27) Colo 320/MDR-LRP adenocarcinoma cell lines were purchased from LGC Promochem,
(§28) Teddington, UK. The cells were cultured in Roswell Park Memorial Institute (RPMI) 1640
(§29) medium supplemented with 10% heat-inactivated fetal bovine serum, 2 mM L-glutamine, 1 mM
(§30) Na-pyruvate and 100 mM Hepes. The cell lines were incubated at 37°C, in a 5% CO2, 95% air
as §3, §4, §5, §6, §7, §8, §9, §10, §11, §12, §13, §14, §15, §16, §17, §18, §19, §20, §21, §22, §23
(§31) 0.76 tyrosyl radical/polypeptide. Samples containing 20 µM mR2 in 50 mM HEPES buffer, pH
(§32) 7.50/100 mM NaCl, and 20 µM respective compound in 1% (v/v) DMSO/H2O, and 2 mM
In general terms: Tetrazolium assays rely on reduction of a dye to a coloured formazan, in cell work by metabolically active cells.

Data set [3] concerns the target T1, mouse R2 RNR protein (Mus musculus, UniProt P11157).
T1 construct: made in house
T1 sequence (P11157 1-390): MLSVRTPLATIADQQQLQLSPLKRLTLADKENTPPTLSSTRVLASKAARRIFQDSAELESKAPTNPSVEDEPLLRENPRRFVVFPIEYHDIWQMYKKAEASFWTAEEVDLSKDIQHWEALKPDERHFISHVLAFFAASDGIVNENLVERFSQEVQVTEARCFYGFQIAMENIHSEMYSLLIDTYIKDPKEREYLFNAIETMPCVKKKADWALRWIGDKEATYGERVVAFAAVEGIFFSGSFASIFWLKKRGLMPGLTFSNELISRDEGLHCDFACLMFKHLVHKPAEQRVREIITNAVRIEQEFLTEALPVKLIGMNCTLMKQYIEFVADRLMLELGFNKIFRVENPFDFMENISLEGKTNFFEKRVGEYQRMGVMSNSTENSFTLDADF
Kind of data set: Tyrosyl radical reduction in mouse R2 RNR protein (EPR). The data set is classed as biochemical. On the procedure:
The time-dependent tyrosyl radical reduction in mR2 RNR by equimolar concentrations of TSCs and their respective copper(II) complexes, under reducing conditions, is shown in Figure 15. […] The favorable impact of the copper(II) coordination on the HL^2 inhibitory activity is quite obvious, when the ability to quench the tyrosyl radical by HL^2 is compared to that of 2′.
The samples contained 20 μM mR2 in 50 mM HEPES buffer, pH 7.60/100 mM KCl, 20 μM compound in 1% (v/v) DMSO/H2O, and 2 mM DTT. […]
2.6. Tyrosyl radical reduction in mouse R2 RNR protein
The tyrosyl radical reduction in mR2 protein by HL1, HL2, HL3, Cu(HL1)Cl2, [Cu(L2)Cl],
Cu(HL3)Cl2, HL1a’, HL1a’’, and HL2c´·CH3COOH was measured by EPR spectroscopy at 30 K,
on a Bruker Elexsys II E540 EPR spectrometer with an Oxford Instruments ER 4112HV helium
cryostat, as described previously.12,13 mR2 protein was expressed, purified, and iron -reconstituted
as described previously, 14 and passed through a 5 mL HiTrap desalting column (GE Healthcare)
as §31, §32
dithiothreitol (DTT) were incubated for indicated times and quickly frozen in cold isopentane. The
same samples were used for repeated incubations at room temperature. […]
Furthermore, the intrinsic reaction coordinate (IRC) analysis was
performed to authenticate that the transition state pertains to the desired reaction coordinate. The
IRC calculations were done at the B3LYP/6-311++G(d,p) level of theory. Molecular orbitals were
drawn using Molekel software.17
3. Schemes for assignment of resonances in HL1 – HL3 and their isomers
Scheme S1. The atom numbering for the assignment of resonances in HL1 – HL3.
(1 picture or pasted object on this page, not shown here)

Data set [4] relates to Colo205. In words: MTT cytotoxicity assay, Colo205. The data set is classed as cell-based. Particulars: Homo sapiens, COLO 205, 72 h of exposure. On the procedure:
as §24, §1, §2, §25, §26, §27, §28, §29, §30, §3, §4, §5, §6, §7, §8, §9, §10, §11, §12, §13, §14, §15, §16, §17, §18, §19, §20, §21, §22, §23, §31, §32

Data set [5] has as its system SW480 cells. Kind of data set: Cell cycle distribution by flow cytometry. The data set is classed as cell-based, human. To be noted: 0.01 μM; 24 h. From the text:
[…] TEXT PRINTED IN THE PICTURE: (A) no label printed: S: 27.7% | (B) no label printed: S: 33.8% | (C) no label printed: S: 44.0% | (D) no label printed: S: 46.5% DOUBTS OF THE COPYIST ABOUT THIS PICTURE: No substance labels are printed in the picture, only the panel letters A-D. / The phase label "S" is printed only in panel A. Applying it to the percentages in panels B, C and D is assumed from where the marker line sits.
(Flow cytometry measures light scatter and fluorescence of single cells or particles in a stream.)

Data set [6] concerns SW480, MES-SA, MES-SA/Dx5, HL60, 41M, SK-BR-3. Also on record: method as in PMID 32336116, PMID 22189939, PMID 31250199. Particulars: several human cancer cells; ref [36],[58],[80]; read-out: IC50 values reported; cited from earlier work.
The conditions of data set [7]: cited from earlier work.
The subject of data set [8] is Colo320. Set-up: method as in doi:10.1039/D0NJ01070G. To be noted: 72 h of exposure; ref [77]; cited from earlier work.
Data set [9] concerns Colo205. Also on record: method as in doi:10.1039/D0NJ01070G. Particulars: 72 h of exposure; ref [77]; cited from earlier work.

In general, IC50 refers to the point on the concentration scale where inhibition reaches its midpoint.

As for `CC(=NNc1nc2cc(C)c(O)c(C)c2s1)c1ccccn1` [HL^2c′·CH3COOH], the IC50 was 2.15 ± 0.1 µM in data set [1], 0.188 ± 0.041 µM in data set [2] and 2.73 ± 0.059 µM in data set [4]. Also, the “tyrosyl radical reduction (comparison in words)” value in data set [3] (20 μM compound, 2 mM DTT) is listed as “as potent as HL^3”.
In [5], `Nc1ccn([C@@H]2O[C@H](CO)[C@@H](O)C2(F)F)c(=O)n1` [Gemcitabine, reference compound] had a G1 phase cells of 26.8% and a S phase cells of 62.3%.
As to `C/C(=N\NC(N)=S)c1ccccn1` [AcTSC, 2-acetylpyridine TSC], the IC50 in data set [6] was 2.5 to 3.6 µM. The “log D7.4” value in data set [7] (ref [67]) is listed as “+1.02”.
`CC1=CC(=Nc2nnc(-c3ccccn3)s2)C=C(C)C1=O` [HL^1a″]: the IC50 in [1], in [2] and in [4] was more than 25 µM throughout. The “effect on the tyrosyl radical content in the presence of DTT” value in data set [3] (20 μM compound, 2 mM DTT) is on record as “cause an increase in the radical content”. Further, the “effect on the tyrosyl radical in the absence of DTT” value in [3] (20 μM compound, no DTT) is “do not have an effect”.
Consider `COc1cccc2c1C(=O)c1c(O)c3c(c(O)c1C2=O)C[C@@](O)(C(=O)CO)C[C@@H]3O[C@H]1C[C@H](N)[C@H](O)[C@H](C)O1` [doxorubicin], for which the results for the IC50 in data set [8] and in data set [9] were 3.12 µM and 3.28 µM, respectively.
Regarding `NC(=S)N/N=C/c1ncccc1N` [triapine, 3-aminopyridine-2-carboxaldehyde TSC, reference compound], the IC50 was 4.21 ± 0.46 µM in data set [2], 0.4 to 2.6 µM in data set [6] and 3.34 ± 0.12 µM in data set [4]. The “log D7.4” value in data set [7] (pH 7.4) is given as “+0.85”. In [3] (equimolar 20 μM compound and mR2, 2 mM DTT), the “mR2 inhibition potency order” value is listed as “HL^1 ≈ triapine > HL^3 > HL^2”.
